The subject of this assay is P388 leukemia ip, CD2F1 mice, survival T/C. As to the kind of experiment: NCI In Vivo Anticancer Drug Screen. Data for tumor model P388 Leukemia (intraperitoneal) in CD2F1 (CDF1) mice. Conditions: endpoint: median survival time, higher = longer survival. The procedure, abridged: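 Mice carrying the transplanted tumor received test compound or vehicle. Survival was recorded in each group, and the value is the treated-group measurement divided by that of the vehicle-treated control group.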

Setting [1] is: dose: 50.0 mg/kg/injection, schedule: Q01DX009 (ip), vehicle: Klucel (hydroxypropylcellulose) (HPC).
[2] abbreviates: dose: 100.0 mg/kg/injection, schedule: Q01DX009 (ip), vehicle: Klucel (hydroxypropylcellulose) (HPC).
Where [3] appears, read: dose: 50.0 mg/kg/injection, schedule: Q01DX005 (ip), vehicle: Klucel (hydroxypropylcellulose) (HPC).
Setting [4] is: dose: 100.0 mg/kg/injection, schedule: Q01DX005 (ip), vehicle: Klucel (hydroxypropylcellulose) (HPC).
Where [5] appears, read: dose: 200.0 mg/kg/injection, schedule: Q01DX005 (ip), vehicle: Klucel (hydroxypropylcellulose) (HPC).
Setting [6] is: dose: 200.0 mg/kg/injection, schedule: Q01DX009 (ip), vehicle: Klucel (hydroxypropylcellulose) (HPC).
[7] abbreviates: dose: 50.0 mg/kg/injection, schedule: Q01DX009 (ip), vehicle: saline with Tween-80.
[8] abbreviates: dose: 100.0 mg/kg/injection, schedule: Q01DX009 (ip), vehicle: saline with Tween-80.
[9] abbreviates: dose: 200.0 mg/kg/injection, schedule: Q01DX009 (ip), vehicle: saline with Tween-80.
The mark [10] stands for this setting: dose: 50.0 mg/kg/injection, schedule: Q01DX005 (ip), vehicle: saline with Tween-80.
[11] abbreviates: dose: 100.0 mg/kg/injection, schedule: Q01DX005 (ip), vehicle: saline with Tween-80.
[12] abbreviates: dose: 25.0 mg/kg/injection, schedule: Q01DX009 (ip), vehicle: saline with Tween-80.

Molecules are shown by their SMILES. Several values for one entry are separate records, joined by “and”; a condition that tells them apart may be missing. Identical values can stand only once. Toxic doses and inconclusive results are not listed.

Consider `COc1cc2c(c(OC)c1OC)-c1ccc(OC)c(=O)cc1C(=O)CC2`, for which the T/C was 115 % of control (dose: 0.62 mg/kg/injection, schedule: Q01DX009 (ip), vehicle: Klucel (hydroxypropylcellulose) (HPC)) and 157 % of control (dose: 5.0 mg/kg/injection, schedule: Q01DX009 (ip), vehicle: Klucel (hydroxypropylcellulose) (HPC)).

With `O=NNc1cnc(-c2ccccc2)c(-c2ccccc2)n1`, the T/C is, setting by setting: (dose: 3.12 mg/kg/injection, schedule: Q01DX009 (ip), vehicle: water) 103 % of control; (dose: 6.25 mg/kg/injection, schedule: Q01DX009 (ip), vehicle: water) 104 % of control; (dose: 12.5 mg/kg/injection, schedule: Q01DX009 (ip), vehicle: water) 105 % of control and 111 % of control; (dose: 25.0 mg/kg/injection, schedule: Q01DX009 (ip), vehicle: water) 116 % of control and 117 % of control; (dose: 100.0 mg/kg/injection, schedule: Q01DX009 (ip), vehicle: water) 96 % of control.

Turning to `O=C(/C=C/c1ccccc1)c1ccccc1`, the T/C runs as follows: (dose: 12.5 mg/kg/injection, schedule: Q01DX009 (ip), vehicle: Klucel (hydroxypropylcellulose) (HPC)) 100 % of control; (dose: 25.0 mg/kg/injection, schedule: Q01DX009 (ip), vehicle: Klucel (hydroxypropylcellulose) (HPC)) 105 % of control; under setting [1], 100 % of control; under setting [2], 108 % of control.

On to `C/C(=N/N)c1ccc(Br)cc1`, for which the T/C (dose: 6.25 mg/kg/injection, schedule: Q01DX009 (ip), vehicle: saline with Tween-80) was 100 % of control and the T/C (dose: 12.5 mg/kg/injection, schedule: Q01DX009 (ip), vehicle: saline with Tween-80) was 104 % of control.

Consider `CC(=O)O[C@H]1CC[C@H]2[C@@H]3CCC(=O)CC(=O)CCC(=O)[C@H]3CC[C@]12C`, for which the T/C under setting [3] is 108 % of control, the T/C under setting [4] was 109 % of control and the T/C under setting [5] was 105 % of control.

Turning to `O=C(c1ccccc1)c1cccs1`, the T/C is, setting by setting: (dose: 22.0 mg/kg/injection, schedule: Q01DX009 (ip), vehicle: saline with Tween-80) 113 % of control; (dose: 44.0 mg/kg/injection, schedule: Q01DX009 (ip), vehicle: saline with Tween-80) 104 % of control; (dose: 88.0 mg/kg/injection, schedule: Q01DX009 (ip), vehicle: saline with Tween-80) 109 % of control.

In the case of `COC1C(c2cc(C(N)=O)n(-c3ccc([N+](=O)[O-])cc3)n2)OC2OC(C)(C)OC21` (stereo not drawn), the T/C is 100 % of control (dose: 100.0 mg/kg/injection, schedule: Q01DX001 (ip), vehicle: saline with Tween-80); 96 % of control (dose: 200.0 mg/kg/injection, schedule: Q01DX001 (ip), vehicle: saline with Tween-80); 94 % of control (dose: 400.0 mg/kg/injection, schedule: Q01DX001 (ip), vehicle: saline with Tween-80).

Regarding `CCCNCC(O)COc1ccc2c3c(c(=O)oc2c1)CCC3` (stereo not drawn), the T/C runs as follows: (dose: 60.0 mg/kg/injection, schedule: Q01DX005 (ip), vehicle: Klucel (hydroxypropylcellulose) (HPC)) 96 % of control; (dose: 120.0 mg/kg/injection, schedule: Q01DX005 (ip), vehicle: Klucel (hydroxypropylcellulose) (HPC)) 96 % of control.

Take `COc1cc2c(cc1OC)C1CC(=O)C(CCCCCCC3CN4CCc5cc(OC)c(OC)cc5C4CC3=O)CN1CC2` (stereo not drawn): the T/C runs as follows: under setting [1], 91 % of control; under setting [2], 92 % of control; under setting [6], 99 % of control.

For the compound `CCOC(=O)/C(NC(=O)c1ccccc1)=C(\NC(=O)c1ccccc1)C(=O)OCC`, the T/C runs as follows: (dose: 60.0 mg/kg/injection, schedule: Q01DX005 (ip), vehicle: saline) 104 % of control; (dose: 120.0 mg/kg/injection, schedule: Q01DX005 (ip), vehicle: saline) 96 % of control; (dose: 240.0 mg/kg/injection, schedule: Q01DX005 (ip), vehicle: saline) 96 % of control.

For `O=S(=O)(Oc1ccc(Cl)cc1)C(F)(F)C(F)(F)C(F)(F)C(F)(F)F`, the T/C by setting is: under setting [7], 105 % of control; under setting [8], 108 % of control; under setting [9], 105 % of control.

Regarding `COC1NC(=S)N(C2CCCCC2)C1(C)C` (stereo not drawn), the T/C was 97 % of control (dose: 50.0 mg/kg/injection, schedule: Q01DX009 (ip), vehicle: suspension in saline); 97 % of control (dose: 100.0 mg/kg/injection, schedule: Q01DX009 (ip), vehicle: suspension in saline); 100 % of control (dose: 200.0 mg/kg/injection, schedule: Q01DX009 (ip), vehicle: suspension in saline).

With `CCCCN1C=C(C)N(CCCC)CC1`, the T/C runs as follows: (dose: 12.5 mg/kg/injection, schedule: Q01DX005 (ip), vehicle: saline with Tween-80) 109 % of control; (dose: 25.0 mg/kg/injection, schedule: Q01DX005 (ip), vehicle: saline with Tween-80) 114 % of control; under setting [10], 121 % of control and 123 % of control; under setting [11], 116 % of control.

Regarding `c1ccc2c3c([nH]c2c1)CN1CCCCC1C3` (stereo not drawn), the T/C by setting is: (dose: 6.25 mg/kg/injection, schedule: Q01DX005 (ip), vehicle: Klucel (hydroxypropylcellulose) (HPC)) 92 % of control; (dose: 12.5 mg/kg/injection, schedule: Q01DX005 (ip), vehicle: Klucel (hydroxypropylcellulose) (HPC)) 92 % of control; (dose: 25.0 mg/kg/injection, schedule: Q01DX005 (ip), vehicle: Klucel (hydroxypropylcellulose) (HPC)) 93 % of control; under setting [3], 99 % of control; under setting [4], 96 % of control; under setting [5], 112 % of control.

`C=C1C(O)C23CCC4C(C(=O)O)(C(=O)O)CC(OC5OC(CO)C(O)C(OC(=O)CCc6ccccc6)C5NC(=O)CC(C)C)CC4(C)C2CCC1(O)C3` (stereo not drawn): the T/C (dose: 0.25 mg/kg/injection, schedule: Q01DX005 (ip), vehicle: Klucel (hydroxypropylcellulose) (HPC)) was 96 % of control; the T/C (dose: 0.5 mg/kg/injection, schedule: Q01DX005 (ip), vehicle: Klucel (hydroxypropylcellulose) (HPC)) is 98 % of control; the T/C (dose: 1.0 mg/kg/injection, schedule: Q01DX005 (ip), vehicle: Klucel (hydroxypropylcellulose) (HPC)) is 100 % of control; the T/C (dose: 3.12 mg/kg/injection, schedule: Q01DX005 (ip), vehicle: Klucel (hydroxypropylcellulose) (HPC)) was 101 % of control.

Regarding `CCS/C(C#N)=C/c1ccccc1Cl`, the T/C is 103 % of control under setting [7] and 112 % of control under setting [8].

Take `COc1cc(N=Nc2cc(CN(C)C)c(O)c3ncccc23)c(OC)cc1N=Nc1c(Cl)cc([N+](=O)[O-])cc1Cl`: the T/C was 104 % of control under setting [10]; 100 % of control under setting [11]; 109 % of control (dose: 200.0 mg/kg/injection, schedule: Q01DX005 (ip), vehicle: saline with Tween-80).

Turning to `CCOC(=O)C1(CC)C(=O)C=C(c2ccccc2)CC1c1ccccc1` (stereo not drawn), the T/C runs as follows: under setting [2], 99 % of control; under setting [6], 94 % of control; (dose: 400.0 mg/kg/injection, schedule: Q01DX009 (ip), vehicle: Klucel (hydroxypropylcellulose) (HPC)) 94 % of control.

As to `CS(=O)(=O)c1cc(C(F)(F)F)cc([N+](=O)[O-])c1Cl`, the T/C runs as follows: under setting [12], 109 % of control; under setting [7], 100 % of control.

In the case of `O=S(=O)(OC1=CCCCC1)C(F)(F)F`, the T/C is 100 % of control under setting [7]; 109 % of control under setting [8]; 112 % of control under setting [9]; 115 % of control (dose: 400.0 mg/kg/injection, schedule: Q01DX009 (ip), vehicle: saline with Tween-80).

Regarding `O=[N+]([O-])CCc1ccc(OC2OC(CO)C(O)C(O)C2O)cc1` (stereo not drawn), the T/C (dose: 100.0 mg/kg/injection, schedule: Q04DX002 (ip), vehicle: saline) was 104 % of control; the T/C (dose: 200.0 mg/kg/injection, schedule: Q04DX002 (ip), vehicle: saline) was 102 % of control; the T/C (dose: 400.0 mg/kg/injection, schedule: Q04DX002 (ip), vehicle: saline) was 97 % of control.

As for `CSCc1ccc(Cl)cc1N` (tested in a mixture with another compound), the T/C by setting is: under setting [12], 103 % of control; under setting [7], 106 % of control; under setting [8], 106 % of control.

On to `CC1CC(c2ccc(Cl)cc2)C(c2ccc(Cl)cc2)C(=O)O1` (stereo not drawn), for which, under setting [2], the T/C is 90 % of control.

Turning to `CS(C)=Nc1ccc([N+](=O)[O-])cc1`, the T/C was 109 % of control (dose: 100.0 mg/kg/injection, schedule: Q01DX001 (ip), vehicle: Klucel (hydroxypropylcellulose) (HPC)) and 100 % of control (dose: 200.0 mg/kg/injection, schedule: Q01DX001 (ip), vehicle: Klucel (hydroxypropylcellulose) (HPC)).

The values are drawn from PubChem BioAssay AID330 (DTP/NCI, 2004).
